Test results as given in article PMC9861623, “New Ferulic Acid and Amino Acid Derivatives with Increased Cosmeceutical and Pharmaceutical Potential” (Pharmaceutics, 2022).
“And” between values parts separate entries of the source, which are not always exact repeats. Equal entries are not always repeated. Where two headings read alike, the source gives them in different places.

Experiments:
[1] = n-octanol/water partition coefficient by shake flask method; type: physicochemical; settings: from log PO/W
Experimental: The n-octanol/water partition coefficient (log PO/W) was determined for ferulic acid and its derivatives by shake flask method. n-Octanol saturated with water and water saturated with n-octanol were prepared at 25 °C, 24 h prior to their use in the experiments. Then, a sample of 10 mg of compound was weighed with the accuracy of 0.01 mg in a 16 cm^3 screwed vial and dissolved in 5 cm^3 of n-octanol. Next, 5 cm^3 of water was added to the vial. The resulting two-phase mixture was kept in water bath shaker at 25 °C for 2 h and was strongly shaken to reach the partition equilibrium of the compound between the phases. Then the mixture was left unshaken for 30 min and 1.0 cm^3 of water phase was carefully taken out to centrifuge tube. The sample was next centrifuged for 10 min at 7500 rpm at 25 °C to ensure the most precise phase separation. The concentration of compound in water phase was then determined using HPLC method. The partition coefficient, log PO/W was calculated according to the formula: logPO/W=logC0V0−CWVW/CWVW where: C0—initial concentration of the compound in n-octanol, calculated based on the weighed mass of compound, mg·cm^−^3; V0—volume of n-octanol, cm^3; CW—concentration of the compound in water after partition equilibrium, mg·cm^−^3; VW—volume of water, cm^3.

[2] = DPPH radical scavenging assay of the compounds
Experimental: (§1) To determine the antioxidant capacity of ferulic acid and its derivatives the DPPH method was used. The analyses were performed using the Hitachi UV-Vis Spectrophotometer U-5100 at the wavelength λ = 517 nm. Trolox (6-hydroxy-2,5,7,8-tetramethylchroman-2-carboxylic acid) was used as a reference substance. The antioxidant activity was expressed as %RSA and mmol Trolox dm^−3. […]. Blank samples without antioxidant were prepared in the same way. The tubes were wrapped in aluminum foil and were sealed with a stopper and then incubated for 10 min at room temperature. After this time, spectrophotometric measurements were carried out in triplicate. For determination of antioxidant activity of the acceptor fluid after 24 h of permeation and solutions obtained by extraction of the skin obtained after penetration study, 0.15 mL samples of each solutions were separately added to 2.85 mL of DPPH solution and spectrophotometric measurements were performed. The antioxidant activity was expressed as mmol Trolox·dm^−3.

[3] = DPPH antioxidant activity of solution obtained after skin extraction; parameters: species or system pig; settings: after 24 h penetration, listed as FA
Experimental: as §1
The accumulation of the FA and its derivatives in the skin after 24 h permeation process through the skin were determined using a modification of the methods described by Janus et al. and Taokaew et al.. After 24 h of permeation experiment, the skin samples were removed from the Franz diffusion cell, washed three times with 0.5% sodium lauryl sulfate solution and dried at room temperature. Next, after cutting out the diffusion area of each skin sample, the samples were immersed in 2 mL of absolute ethanol and continuously stirred at 300 rpm at room temperature for 24 h. The samples were then centrifuged, and clear solutions were collected and analyzed by HPLC method for the determination of FA and its derivatives. The accumulation of the active substance in the skin was calculated by dividing the amount of the drug remaining in the skin by a mass of skin sample and was expressed in mass active substance per mass of the skin (µg g^−1). For solution obtained after skin extraction, the antioxidant activity and total polyphenol content were also determined (as described in Section 2.5.1 and Section 2.5.2).

[4] = Thermogravimetric (TG) analysis, thermal stability; type: physicochemical
Experimental: Samples of 2–5 mg, loaded in aluminium crucibles, were heated from 30 °C to 600 °C at the heating rate of 10 °C·min^−1, in the air atmosphere (25 mL·min^−1) with nitrogen flow (10 mL·min^−1) as the purge gas.

L929 cells [5] = tested on: L929 cells; parameters: method as in PMID 24344870; settings: L929, 72 h, cited from earlier work
L929 cells [6] = tested on: L929 cells; parameters: method as in PMID 32485864; settings: L929, 24 h, highest tested concentration of 2.5–40 mg L^−1, Trypan blue; cited from earlier work
L929 cells [7] = tested on: L929 cells; parameters: method as in PMID 32485864; settings: L929, 24 h, 2.5–40 mg L^−1, MTT assay; cited from earlier work
NIH-3T3 cells = tested on: NIH-3T3 cells; parameters: method as in PMID 29077251; settings: NIH-3T3, 500 μg mL^−1; cited from earlier work
3T3-L1 cells = tested on: 3T3-L1 cells; parameters: method as in PMID 29077251; settings: 3T3-L1, 500 μg mL^−1; cited from earlier work
fibroblasts = tested on: fibroblasts; parameters: method as in doi:10.3390/pr9071204; settings: fibroblasts after UVB irradiation, increased from 9.92%; cited from earlier work
diabetic rats = tested on: diabetic rats; parameters: method as in doi:10.1016/j.jddst.2022.103621; settings: 50 mg kg^−1 body wt., orally for 8 weeks; cited from earlier work
NRK-52E cells = tested on: NRK-52E cells; parameters: method as in doi:10.1016/j.jddst.2022.103621; settings: 75 μM, high glucose environment; cited from earlier work
[8] = tested on: Murine fibroblasts (L929); experiment: Cytotoxicity, PrestoBlue resazurin-based cell viability assay; settings: 0.03125–2.0 mM (any dosage), 24 h
Experimental: The cell biocompatibility was evaluated using a PrestoBlue HS Cell Viability Reagent (Thermo Fisher Scientific, MA USA) based on the reduction of the resazurin to highly fluorescent resorufin, of which the amount is directly correlated to the number of living cells. […] The cells without tested compounds were used as control. The interaction of tested compounds without cells and Prestoblue Reagent (blank wells) was excluded. After 24 h of treatment, optical microscopy imaging of L929 cells was performed using Smart Fluorescent Cell Analyzer Microscope JuLi (Seoul, Korea). Next, the PrestoBlue reagent (10 μL) was added to each well and incubated for 30 min. The fluorescence was measured using a spectrophotometric microplate reader (Infinite 200 Pro, Tecan, Männedorf, Switzerland) at ex/em: 560/594 nm. The readings were acquired from at least three independent experiments (each conducted in triplicate) and normalized to the control (100% viability).

[9] = molar ratio antioxidant:DPPH 0.1, 10 min, listed as FA
[10] = molar ratio antioxidant:DPPH 1.0, 10 min
[11] = molar ratio antioxidant:DPPH 2.0, 10 min, listed as FA

Structure (SMILES): COc1cc(/C=C/C(=O)O)ccc1O [Ferulic acid]
- Share of compound partitioned to n-octanol [1]: ~98%
- Antioxidant activity %RSA [2, 9]: 12.4 ± 0.001 %RSA and 12.4 ± 0.001 a %RSA
- Antioxidant activity, Trolox equivalents [2, 9]: 0.049 ± 0.001 mmol Trolox dm^−3 and 0.049 ± 0.001 a mmol Trolox dm^−3
- Antioxidant activity %RSA [2, 10]: 73.2 ± 0.001 b %RSA
- Antioxidant activity, Trolox equivalents [2, 10]: 0.635 ± 0.001 b mmol Trolox dm^−3
- Antioxidant activity %RSA [2, 11]: 86.5 ± 0.001 %RSA and 86.5 ± 0.001 b %RSA
- Antioxidant activity, Trolox equivalents [2, 11]: 0.763 ± 0.001 mmol Trolox dm^−3 and 0.763 ± 0.001 b mmol Trolox dm^−3
- DPPH antioxidant activity of the solution obtained after skin extraction ([3]; emulsion): 0.300 ± 0.024 b mmol Trolox dm^−3
- DPPH antioxidant activity of the solution obtained after skin extraction ([3]; ethanol solution): 0.394 ± 0.004 mmol Trolox dm^−3 and 0.394 ± 0.004 b mmol Trolox dm^−3
- DPPH antioxidant activity of the solution obtained after skin extraction ([3]; hydrogel): 0.381 ± 0.011 mmol Trolox dm^−3 and 0.381 ± 0.011 b mmol Trolox dm^−3
- Td onset, the onset of decomposition ([4]; TG, air atmosphere, 10 °C·min^−1): 217.0 °C
- Td max, temperature of the fastest mass loss of the sample ([4]; TG/DTG, air atmosphere, 10 °C·min^−1): 251.2 °C
- Temperature range of decomposition (main weight loss) ([4]; according to the DTG curve): 175–300 °C
- cell viability (L929 cells [5]; 500 μg mL^−1 (2.57 mM)): 67%
- cell viability (L929 cells [5]; 1000 μg mL^−1 (5.15 mM)): 28%
- cell viability (L929 cells [6]): 80%
- effect on cell viability/proliferation (L929 cells [7]): no effect on cell viability/proliferation
- toxicity on normal cells (NIH-3T3 cells): did not cause any toxicity
- toxicity on normal cells (3T3-L1 cells): did not cause any toxicity
- percentage of viable cells (fibroblasts): 46.02%
- effect in diabetic rats (diabetic rats): markedly ameliorated kidney injury, renal cell apoptosis, inflammation, and defective autophagy in the kidneys
- effect in cultured NRK-52E cells (NRK-52E cells): countered excessive ROS generation, induced autophagy, and inhibited apoptotic death of cells
- Difference in L929 viability between control and treated cells [8]: No statistically significant differences in viability
